Laboratory results: ChEMBL document CHEMBL3526061, “Glucuronidation of edaravone by human liver and kidney microsomes: biphasic kinetics and identification of UGT1A9 as the major UDP-glucuronosyltransferase isoform” (Drug Metab Dispos, 2012)

Tests used:
Type in all cases: ADME
Liver microsome [1] = test: Drug metabolism in human liver microsomes assessed as drug glucuronidation in presence of 100 to 1000 uM propofol by LC-MS/MS method
[2] = Drug metabolism in human liver microsomes assessed as drug glucuronidation in presence of BSA by LC-MS/MS method
[3] = Drug metabolism in human kidney microsomes assessed as drug glucuronidation in presence of […] naloxone by LC-MS/MS method
[4] = Drug metabolism in human kidney microsomes assessed as drug glucuronidation in presence of 100 to 1000 uM propofol by LC-MS/MS method
[5] = biological target: T1, UDP-glucuronosyltransferase 2B7 (Homo sapiens, UniProt P16662); test: Activity of human recombinant UGT2B7 expressed in insect cells assessed as intrinsic clearance for enzyme mediated glucuronidation per mg protein by LC-MS/MS method
T1 sequence (P16662 whole entry): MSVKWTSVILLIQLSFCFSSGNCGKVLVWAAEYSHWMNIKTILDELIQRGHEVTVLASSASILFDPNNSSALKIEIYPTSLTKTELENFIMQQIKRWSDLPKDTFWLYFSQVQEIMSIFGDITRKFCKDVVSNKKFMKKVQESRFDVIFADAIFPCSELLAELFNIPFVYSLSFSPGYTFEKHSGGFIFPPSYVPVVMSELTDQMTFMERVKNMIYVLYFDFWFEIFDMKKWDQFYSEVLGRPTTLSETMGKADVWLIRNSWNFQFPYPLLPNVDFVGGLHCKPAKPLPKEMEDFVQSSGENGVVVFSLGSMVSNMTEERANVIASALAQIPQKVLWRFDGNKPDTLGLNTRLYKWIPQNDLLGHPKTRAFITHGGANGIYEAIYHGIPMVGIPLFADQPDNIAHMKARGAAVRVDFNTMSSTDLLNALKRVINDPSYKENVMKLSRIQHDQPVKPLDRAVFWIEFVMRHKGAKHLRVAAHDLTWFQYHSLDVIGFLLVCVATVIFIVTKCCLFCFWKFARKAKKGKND

[6] = biological target: T2, UDP-glucuronosyltransferase 1A8 (Homo sapiens, UniProt Q9HAW9); test: Activity of human recombinant UGT1A8 expressed in insect cells assessed as enzyme mediated glucuronidation at 12.5 uM by LC-MS/MS method
T2 sequence (Q9HAW9 whole entry): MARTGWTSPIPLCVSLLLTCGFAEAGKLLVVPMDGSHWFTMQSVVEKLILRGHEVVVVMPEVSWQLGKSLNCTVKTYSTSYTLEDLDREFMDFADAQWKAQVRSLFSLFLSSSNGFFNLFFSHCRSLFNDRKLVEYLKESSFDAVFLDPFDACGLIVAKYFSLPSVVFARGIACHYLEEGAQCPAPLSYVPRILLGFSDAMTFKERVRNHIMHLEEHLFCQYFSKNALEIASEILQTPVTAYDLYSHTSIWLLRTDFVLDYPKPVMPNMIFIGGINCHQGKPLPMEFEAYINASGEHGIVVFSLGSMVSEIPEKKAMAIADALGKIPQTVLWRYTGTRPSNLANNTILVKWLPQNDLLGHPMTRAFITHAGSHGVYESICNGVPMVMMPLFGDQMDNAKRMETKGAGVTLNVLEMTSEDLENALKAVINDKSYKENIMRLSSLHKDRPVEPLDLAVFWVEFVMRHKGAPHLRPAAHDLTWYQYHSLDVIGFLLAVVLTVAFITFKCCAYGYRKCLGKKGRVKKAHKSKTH

[7] = biological target: T3, UDP-glucuronosyltransferase 1A9 (Homo sapiens, UniProt O60656); test: Activity of human recombinant UGT1A9 expressed in insect cells assessed as enzyme mediated glucuronidation at 12.5 uM by LC-MS/MS method
T3 sequence (O60656 whole entry): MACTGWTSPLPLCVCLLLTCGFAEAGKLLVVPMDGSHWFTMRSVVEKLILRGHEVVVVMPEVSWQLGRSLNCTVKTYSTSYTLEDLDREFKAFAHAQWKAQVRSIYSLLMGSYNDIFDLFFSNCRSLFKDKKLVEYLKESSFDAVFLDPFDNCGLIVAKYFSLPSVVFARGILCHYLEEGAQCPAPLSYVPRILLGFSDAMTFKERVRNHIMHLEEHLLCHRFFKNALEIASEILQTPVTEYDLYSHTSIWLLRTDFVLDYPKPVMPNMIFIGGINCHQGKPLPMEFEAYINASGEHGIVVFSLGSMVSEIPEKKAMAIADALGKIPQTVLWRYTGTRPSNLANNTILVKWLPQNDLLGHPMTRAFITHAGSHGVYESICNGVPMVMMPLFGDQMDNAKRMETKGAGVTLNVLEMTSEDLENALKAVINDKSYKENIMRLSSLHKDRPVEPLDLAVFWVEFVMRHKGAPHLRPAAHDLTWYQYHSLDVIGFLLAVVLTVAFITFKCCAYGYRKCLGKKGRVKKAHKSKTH

[8] = biological target: T4, UDP-glucuronosyltransferase 1A6 (Homo sapiens, UniProt P19224); test: Activity of human recombinant UGT1A6 expressed in insect cells assessed as enzyme mediated glucuronidation at 500 uM by LC-MS/MS method
T4 sequence (P19224 whole entry): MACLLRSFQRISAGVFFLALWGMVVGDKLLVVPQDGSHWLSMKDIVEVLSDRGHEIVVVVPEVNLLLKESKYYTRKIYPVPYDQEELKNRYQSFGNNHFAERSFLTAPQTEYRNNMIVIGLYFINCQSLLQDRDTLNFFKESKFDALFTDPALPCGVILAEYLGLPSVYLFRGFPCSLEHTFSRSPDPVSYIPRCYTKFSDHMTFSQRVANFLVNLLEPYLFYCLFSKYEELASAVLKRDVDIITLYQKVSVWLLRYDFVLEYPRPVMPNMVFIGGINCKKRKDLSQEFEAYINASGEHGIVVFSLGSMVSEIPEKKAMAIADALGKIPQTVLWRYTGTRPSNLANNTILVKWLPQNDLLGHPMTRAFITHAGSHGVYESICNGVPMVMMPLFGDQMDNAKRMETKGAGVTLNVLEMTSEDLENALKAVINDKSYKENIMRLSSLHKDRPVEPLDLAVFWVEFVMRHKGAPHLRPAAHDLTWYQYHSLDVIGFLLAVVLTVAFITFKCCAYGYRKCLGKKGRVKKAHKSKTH

Liver microsome [9] = test: Drug metabolism in human liver microsomes assessed as drug glucuronidation in presence of 5 to 35 uM androsterone by LC-MS/MS method
Liver microsome [10] = test: Drug metabolism in human liver microsomes assessed as drug glucuronidation per mg tissue in presence of BSA by LC-MS/MS method

In the case of `CC1=NN(c2ccccc2)C(=O)C1` [EDARAVONE], the Drug metabolism (Liver microsome [1]) is reported as “metabolite_not_detected”, the Km ([2]; read-out: KmH) is reported as 8.4 µM and the Km ([2]; read-out: KmL) is reported as 1350 µM. For the same compound, the Drug metabolism [3] was “metabolite_detected”, the Drug metabolism [4] was “metabolite_not_detected” and the CL [5] was 0.7 µL/min/g. The Drug metabolism [6] was “metabolite_detected”, the Drug metabolism [7] was “metabolite_detected” and the Drug metabolism [8] was “metabolite_detected”. The Drug metabolism (Liver microsome [9]) was “metabolite_detected”, the VmaxH (Liver microsome [10]) was 137.9 pmol/min/g and the VmaxL (Liver microsome [10]) was 4904 pmol/min/g.
